Like-named read-outs stand apart in the source and are kept apart here.
Key:
[1] = system: human TERT expression (hTERT mRNA); experiment: Quantitative real-time RT-PCR of hTERT mRNA expression (Ct, transcripts) in compound-treated cells; type: cell-based
Procedure, shortened: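 Read-out is cycle threshold, the cycle at which probe fluorescence released by Taq 5′-nuclease activity crosses a set level; Ct falls as hTERT mRNA rises. cDNA of treated and untreated cells was compared, with starting transcripts quantified against a known-cDNA standard curve.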

viable cells in culture = experiment: Cell viability assay (CellTiter-Glo Luminescent Cell Viability Assay, ATP quantitation, percent of vehicle control)

SMILES | Average Number of hTERT Transcripts [1] | Average Cell Viability after 24 Hours (% DMSO) (viable cells in culture) | Average Number of hTERT Transcripts ([1]; quantitative real-time RT-PCR)
O=C(NCCN1CCOCC1)c1cc(-c2ccccc2)on1 [compound 1506] | 52.39 | 84.31 | –
Cc1cnc(CNC(=O)c2cc(-c3cccs3)on2)cn1 [compound 1519] | 303.81 | 110.34 | –
Cc1nn2c(=O)cc(-c3ccccc3Cl)[nH]c2c1-c1ccccc1 [compound 1164] | – | 71.68 | 56.66
C=CCNC(=O)c1cc(-c2cccs2)on1 [compound 1192] | – | 95.64 | 279.74
CCCCNC(=O)c1cc(-c2cccs2)on1 [compound 1197] | – | 88.24 | 168.54
O=C(NCCCn1ccnc1)c1cc(-c2ccccc2)on1 [compound 1522] | 345.10 | 80.72 | –
NC(=O)C1CCN(c2nc3c(S(=O)(=O)c4cccc(Cl)c4)nnn3c3ccsc23)CC1 [compound 1261] | – | 85.18 | 40.28
CC(=O)C1=C(C)NC(SCC(=O)Nc2sc3c(c2C#N)CCCC3)=C(C#N)C1c1ccc(Cl)cc1 (centres unmarked) [compound 1434] | 25.17 | 72.00 | –
Cc1nn2c(=O)c(Cc3cccc(Cl)c3)c(C)[nH]c2c1-c1ccccc1 [compound 1166] | – | 77.99 | 152.34
CCc1c(C)nc(-n2nc(C)cc2NC(=O)C2c3ccccc3Oc3ccccc32)[nH]c1=O [compound 1296] | – | 73.20 | 60.31
CCOC(=O)c1ccc(Nc2nc3nonc3nc2N(CC)CC)cc1 [compound 1228] | – | 73.46 | 48.23
O=C(O)c1ccc(NC(=S)NC(=O)c2cccc3ccccc23)cc1 [compound 1383] | 53.78 | 74.00 | –
O=C(CN1C(C(=O)c2ccccc2)=C(N2CCCCC2)c2ccccc2S1(=O)=O)c1ccccc1 [compound 1211] | – | 81.77 | 52.31
COc1cc([N+](=O)[O-])cc2cc(C(=O)NCCCN3CCOCC3)c(=O)oc12 [compound 1311] | – | 92.83 | 4.38
O=C(N/N=C/c1c(O)ccc2ccccc12)c1ccc(Cl)c(Cl)c1 [compound 1266] | – | 50.17 | 14.59
O=[N+]([O-])c1ccc(NS(=O)(=O)c2cccc(C(F)(F)F)c2)cc1 [compound 1335] | – | 75.24 | 11.78
CC1(C(=O)O)CC(=O)N=C2C=CC(Cl)=CN21 (centres unmarked) [compound 1329] | – | 94.31 | 3.63
Brc1n[nH]c2ncnc(N3CCCC3)c12 [compound 1249] | – | 77.92 | 27.87
Cc1cc(OCC(=O)N/N=C/c2c(C)nn(-c3ccccc3)c2O)ccc1Cl [compound 1485] | 48.25 | 112.70 | –
CCCCNC(=O)c1cc(-c2ccc(F)cc2)on1 [compound 1181] | – | 85.44 | 24.74
CCOC(=O)N1CCN(C(=O)Cc2c(C)nn(-c3nc(C)c(C)s3)c2O)CC1 [compound 1127] | – | 92.15 | 20.86
CCC(C)c1ccccc1OCCCCN1CCN(C)CC1 (centres unmarked) [compound 1378] | 11.15 | 89.06 | –
Cc1ccc(Cc2c(C)nn(-c3nc4ccccc4[nH]3)c2O)cc1 [compound 1143] | – | 35.07 | 22.65
Cc1nc(-n2nc(C)c(CC(=O)N3CCN(c4ccc(F)cc4)CC3)c2O)sc1C [compound 1125] | – | 78.39 | 82.95
O=C(N/N=C/c1ccccn1)c1ccccc1 [compound 1265] | – | 81.94 | 4.42
Cc1csc(-n2nc(C)c(CCC(=O)Nc3ccc(Br)cc3)c2O)n1 [compound 1133] | – | 77.29 | 108.84
Cc1nc(-n2nc(C)c(CCC(=O)N3CCCCC3)c2O)sc1C [compound 1137] | – | 81.10 | 81.62
O=C(O)c1ccc(NC(=S)NC(=O)c2cccc(Cl)c2)cc1 [compound 1379] | 12.37 | 82.14 | –

SMILES | Average Number of hTERT Transcripts [1] | Average Cell Viability after 24 Hours (% DMSO) (viable cells in culture) | Average Number of hTERT Transcripts ([1]; quantitative real-time RT-PCR)
CCC(O)c1nc2ccccc2n1CCOc1cccc(OC)c1 (centres unmarked) [compound 1253] | – | 91.13 | 3.09
O=C(Cc1ccccc1)NNC1=C(C(=O)C(F)(F)F)CCC1 [compound 1278] | – | 74.57 | 35.46
O=C(CSc1ccc(-c2ccccn2)nn1)Nc1ccc2c(c1)OCCO2 [compound 1256] | – | 73.30 | 33.82
CN1CCN(CCCNC(=O)c2cc(-c3cccs3)on2)CC1 [compound 1514] | 102.98 | 98.72 | –
Cc1noc(-c2cc(Br)cc(Br)c2O)n1 [compound 1312] | – | 67.76 | 51.29
O=C(CSc1nnc(-c2ccncc2)o1)NCc1ccccc1Br [compound 1493] | 6.84 | 100.09 | –
COC(=O)c1ccc(NC(=O)CSc2nnc(CNC(=O)c3ccccc3)n2C)cc1 [compound 1404] | 10.87 | 104.14 | –
CCCCNC(=O)c1cc(-c2ccco2)on1 [compound 1191] | – | 95.11 | 164.47
CC(C)CCNC(=O)c1cc(-c2cccs2)on1 [compound 1511] | 88.76 | 75.76 | –
Cc1ccc(OCC(=O)N/N=C/c2c(C)nn(-c3ccccc3)c2O)c(C)c1 [compound 1483] | 5.19 | 81.33 | –
C/C(=N\NC(=O)c1c(O)ccc2ccccc12)c1ccccc1C(=O)O [compound 1531] | 32.70 | 110.91 | –
CCCCC(=O)OC1=C(C(=O)c2ccccc2)N(CC)S(=O)(=O)c2ccccc21 [compound 1218] | – | 82.36 | 3.35
COc1ccc2sc(Nc3nc(C)n(-c4ccccc4)c(=O)n3)nc2c1 [compound 1170] | – | 36.74 | 102.53
O=C(CN1C(C(=O)c2ccccc2)=C(O)c2ccccc2S1(=O)=O)c1ccccc1 [compound 1212] | – | 80.54 | 38.44
FC(F)(F)c1cccc(NC(=S)Nc2ccc(Cc3ccncc3)cc2)c1 [compound 1449] | 48.57 | 53.58 | –
OCCN1CCN(c2ncnc3scc(-c4ccccc4)c23)CC1 [compound 1544] | 3.85 | 104.59 | –
CCOC(=O)c1sc(-n2nc(C)c(Cc3ccc(Cl)cc3)c2O)nc1C [compound 1131] | – | 75.57 | 95.19
CCOC(=O)COc1ccc(S(=O)(=O)Nc2ccc(C(=O)OC)cc2)cc1 [compound 1413] | 25.20 | 80.11 | –
Cc1nn2c(=O)c(Cc3ccccc3)c(C)[nH]c2c1-c1ccc(Cl)cc1 [compound 1145] | – | 63.03 | 76.07
O=C(CSc1ccc(-c2ccccn2)nn1)Nc1ccc2c(c1)OCO2 [compound 1255] | – | 76.32 | 56.91
CC(=O)N1C(=O)C(=O)c2cc(Cl)ccc21 [compound 1336] | – | 100.05 | 7.64
NCCC(=O)N[C@@H](Cc1cnc[nH]1)C(=O)O [compound 1557] | 54.80 | 97.77 | –
Clc1cccc(CSc2ccc(-c3ccccn3)nn2)c1 [compound 1260] | – | 60.48 | 17.25
Cc1occc1C(=O)N/N=C/c1cc(I)cc(I)c1O [compound 1277] | – | 68.53 | 24.11
CCn1ncc([N+](=O)[O-])c1C(=O)Nc1sc2c(c1C#N)CCCCCC2 [compound 1325] | – | 94.20 | 29.36
O=C(CS(=O)(=O)c1ccccc1)Nc1nc(-c2ccccn2)cs1 [compound 1202] | – | 72.91 | 141.08
O=C(Nc1nc(-c2ccccn2)cs1)c1cccc(S(=O)(=O)N2CCCCC2)c1 [compound 1174] | – | 73.06 | 12.12
